Values of other authors, collected in patent US20070021506A1, “Stress relieving composition” (Ajinomoto Co., Inc., priority 2004, published 2007).
Like-named read-outs stand apart in the source and are kept apart here.

Experiments:
5HT-4 receptor = molecular target: T1, 5HT-4 receptor (Rattus norvegicus, UniProt Q62758)
T1 construct: suppressed anxiety disorder of rats induced by a 5HT-4 receptor agonist; from tissue; host or cells: living rats (whole animal; oral L-lysine, s.c. agonist)

benzodiazepine receptor = settings: Non-patent document 9
5-HT4 receptor = molecular target: T2, 5-HT4 receptor (Cavia porcellus, UniProt O70528); settings: in vitro
T2 construct: from tissue; host or cells: guinea pig ileum
T2 sequence (O70528 whole entry): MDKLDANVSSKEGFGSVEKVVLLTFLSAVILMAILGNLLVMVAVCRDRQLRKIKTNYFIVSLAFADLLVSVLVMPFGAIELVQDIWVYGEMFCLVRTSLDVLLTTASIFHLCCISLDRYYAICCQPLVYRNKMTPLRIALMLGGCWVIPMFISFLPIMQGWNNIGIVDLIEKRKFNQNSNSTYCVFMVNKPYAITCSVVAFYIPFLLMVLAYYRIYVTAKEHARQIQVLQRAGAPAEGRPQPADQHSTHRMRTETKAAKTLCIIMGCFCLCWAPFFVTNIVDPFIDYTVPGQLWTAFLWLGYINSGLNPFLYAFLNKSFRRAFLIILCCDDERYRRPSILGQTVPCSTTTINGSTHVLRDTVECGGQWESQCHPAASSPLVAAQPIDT

T1 sequence (Q62758 whole entry): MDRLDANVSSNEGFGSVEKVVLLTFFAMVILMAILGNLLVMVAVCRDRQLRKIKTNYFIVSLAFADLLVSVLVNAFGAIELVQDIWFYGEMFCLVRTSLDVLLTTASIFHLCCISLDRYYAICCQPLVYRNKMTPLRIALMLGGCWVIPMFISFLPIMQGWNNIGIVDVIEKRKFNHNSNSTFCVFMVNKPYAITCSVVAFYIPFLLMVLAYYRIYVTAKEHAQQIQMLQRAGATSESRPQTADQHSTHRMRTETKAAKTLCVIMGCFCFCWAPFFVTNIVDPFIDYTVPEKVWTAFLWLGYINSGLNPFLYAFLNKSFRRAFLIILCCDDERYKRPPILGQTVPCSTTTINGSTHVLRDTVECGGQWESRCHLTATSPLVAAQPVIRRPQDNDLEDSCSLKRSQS

## NCCCC[C@H](N)C(=O)O [L-lysine]
5HT-4 receptor; 1 g/kg, p.o., agonist 3.0 mmol/l s.c.
  anxiety disorder of rats induced by a 5HT-4 receptor agonist: significantly suppressed
5HT-4 receptor; rat, in vivo
  action at 5HT-4 receptor: partially serves as a 5HT-4 receptor antagonist
Benzodiazepine receptor
  action at benzodiazepine receptor: benzodiazepine receptor agonist
5-HT4 receptor; 0.07 mmol/dl, P<0.05
  5-HT-induced contraction of the guinea pig ileum: blocked
5-HT4 receptor; 0.7 mmol/dl, P<0.01
  5-HT-induced contraction of the guinea pig ileum: blocked

## N[C@@H](Cc1c[nH]c2ccccc12)C(=O)O [Trp, tryptophan]
Clinical study conducted recently (Non-patent document 3)
  mood enhancement effect: could not be fully supported
Comparative clinical study, taken alone or together with carbohydrates
  stress-induced mood: relieved

## N[C@@H](Cc1ccc(O)cc1)C(=O)O [Tyr, tyrosine]
Normal subjects exposed to mental stress
  mood: improved the mood significantly
Patients with depression
  effect in terms of mood criterion: a significant effect in terms of mood criterion was not observed
